According to paper PMC2632303 (Journal of molecular biology, 2008):
Where no end group is shown, it is not given here.

Columns and labels:
human 20S proteasome [1] = target: T1, human 20S proteasome (Homo sapiens, UniProt P25788); experiment: Inhibition of chymotrypsin-like activity of 20S proteasome by PR-peptides; format: biochemical; details: same experiment as I50; n of Eq. 1
human 20S proteasome [2] = target: T1, human 20S proteasome; experiment: Ki determinations, non-competitive kinetics with Suc-LLVY-AMC; format: biochemical; details: for Ki relative to PR11: comparison of Table III values
20S proteasome = details: cited from earlier work

Row | Sequence | Ki (human 20S proteasome [2]) [nM] | Ki relative to PR11 (human 20S proteasome [2]) | also measured
1 | RRRPRPPYLPRPRPPPFFPPRLPPRIPPGFPPRFPPRFP [PR39] |  |  | N (fractional occupation of PR-peptide on 20S proteasome, derived from curve-fitting) (human 20S proteasome [1]): 1.232
2 | RRRPRPPYLPRW [Peptide W12] | 39.5 |  | 
3 | RRRPRPPALPRW [Peptide A8W12] | 50.7 | nearly half of PR11 | 
4 | RRRPRPPY [PR8] |  |  | Inhibition of 20S proteasome (20S proteasome): does not inhibit 20S proteasome
5 | RRRPRPPYLPR [PR11] | 86.5 |  | 
6 | RRRPRPPFLPRW [Peptide F8W12] | 184 | about two-fold greater than that of PR11 | 
